Key:
[1] = biological target: T1, Gonadotropin-releasing hormone receptor (Homo sapiens, UniProt P30968); experiment: Ability to inhibit des-Gly10[125I]Tyr5,DLeu6,NMeLeu7, Pro9-NEt]-GnRH radioligand binding to the cloned human gonadotropin-releasing hormone receptor stably expressed in HEK293 cells; type: cell-based
T1 sequence (P30968 whole entry): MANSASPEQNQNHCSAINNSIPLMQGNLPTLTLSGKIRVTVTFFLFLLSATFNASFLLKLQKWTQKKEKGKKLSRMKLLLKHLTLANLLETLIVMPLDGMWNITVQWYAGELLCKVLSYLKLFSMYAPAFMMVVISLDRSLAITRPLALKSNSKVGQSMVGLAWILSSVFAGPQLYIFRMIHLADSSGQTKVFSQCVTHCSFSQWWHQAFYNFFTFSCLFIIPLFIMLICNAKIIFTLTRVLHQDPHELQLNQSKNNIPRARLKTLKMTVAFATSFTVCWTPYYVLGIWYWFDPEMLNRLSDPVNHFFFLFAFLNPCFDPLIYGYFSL

[2] = Inhibition of GnRH-stimulated [Ca2+] influx; type: functional

| SMILES | Ki [1] [nM] | IC50 [2] [nM] |
| --- | --- | --- |
| COc1cccc(-c2c(C)n(Cc3c(F)cccc3F)c(=O)n(C[C@H](C)N(C)CCc3ccccn3)c2=O)c1 | 890 | – |
| COc1cccc(-c2c(C)n(Cc3c(F)cccc3F)c(=O)n(C[C@H](C)N(C)Cc3ccccc3)c2=O)c1 | 250 | – |
| COc1cccc(-c2c(C)n(Cc3c(F)cccc3F)c(=O)n(C[C@@H](C)N(C)Cc3ccccn3)c2=O)c1 | – | 2.5 |
| COc1cccc(-c2c(C)n(Cc3c(F)cccc3F)c(=O)n(C[C@@H](C)N(C)Cc3ccccc3)c2=O)c1 | 330 | – |
| COc1cccc(-c2c(C)n(Cc3c(F)cccc3F)c(=O)n(CC(C)N(C)CCCOCC(C)C)c2=O)c1 (centres undefined) | 240 | – |
| COc1cccc(-c2c(C)n(Cc3c(F)cccc3F)c(=O)n(C[C@H](C)NCc3ccccn3)c2=O)c1 | 460 | – |
| COc1cccc(-c2c(C)n(Cc3c(F)cccc3F)c(=O)n(C[C@H](C)NCCc3ccccn3)c2=O)c1 | 780 | – |
| COc1cccc(-c2c(C)n(Cc3c(F)cccc3F)c(=O)n(CC(C)NCc3ccccc3)c2=O)c1 (centres undefined) | 280 | – |
| COc1cccc(-c2c(C)n(Cc3c(F)cccc3F)c(=O)n(C[C@H](C)N)c2=O)c1 | 18000 | – |
| COc1cccc(-c2c(C)n(Cc3c(F)cccc3F)c(=O)n(CCNCc3ccccn3)c2=O)c1 | 550 | – |
| COc1cccc(-c2c(C)n(Cc3c(F)cccc3F)c(=O)n(C[C@@H](C)N)c2=O)c1 | 2500 | – |
| COc1cccc(-c2c(C)n(Cc3c(F)cccc3F)c(=O)n(C[C@@H]3CCCN3Cc3ccccn3)c2=O)c1 | 210 | – |
| COc1cccc(-c2c(C)n(Cc3c(F)cccc3F)c(=O)n(CC(C)N(C)Cc3ccccc3)c2=O)c1 (centres undefined) | 310 | – |

The remaining molecules from weak to strong by Ki [1], led by results:

| Ki [1] [nM] | IC50 [2] [nM] | SMILES |
| --- | --- | --- |
| 170 | – | COc1cccc(-c2c(C)n(Cc3c(F)cccc3F)c(=O)n(CC(C)NCCc3ccccn3)c2=O)c1 (centres undefined) |
| 140 | – | COc1cccc(-c2c(C)n(Cc3c(F)cccc3F)c(=O)n(C[C@H](C)NCc3ccccc3)c2=O)c1 |
| 130 | – | COc1cccc(-c2c(C)n(Cc3c(F)cccc3F)c(=O)n(C[C@@H](C)NCc3ccccc3)c2=O)c1 |
| 96 | – | COc1cccc(-c2c(C)n(Cc3c(F)cccc3F)c(=O)n(CCN(C)Cc3ccccn3)c2=O)c1 |
| 81 | – | COc1cccc(-c2c(C)n(Cc3c(F)cccc3F)c(=O)n(CC(C)NCCCOCC(C)C)c2=O)c1 (centres undefined) |
| 79 | – | COc1cccc(-c2c(C)n(Cc3c(F)cccc3F)c(=O)n(C[C@@H](C)NCCc3ccccn3)c2=O)c1 |
| 53 | – | COc1cccc(-c2c(C)n(Cc3c(F)cccc3F)c(=O)n(CC(C)NCc3ccccn3)c2=O)c1 (centres undefined) |
| 32 | – | COc1cccc(-c2c(C)n(Cc3c(F)cccc3F)c(=O)n(C[C@H]3CCCN3Cc3ccccn3)c2=O)c1 |
| 15 | – | COc1cccc(-c2c(C)n(Cc3c(F)cccc3F)c(=O)n(C[C@@H](C)NCc3ccccn3)c2=O)c1 |
| 12 | – | COc1cccc(-c2c(C)n(Cc3c(F)cccc3F)c(=O)n(CC(C)N(C)CCc3ccccn3)c2=O)c1 (centres undefined) |
| 5.2 | – | COc1cccc(-c2c(C)n(Cc3c(F)cccc3F)c(=O)n(C[C@@H](C)N(C)CCc3ccccn3)c2=O)c1 |
